The NIST ThermoML archive (doi:10.1016/j.jct.2015.11.012)
± gives the expanded uncertainty stated by the source.

Tests used:
[1] = 100 kPa, Liquid; for viscosity: Capillary tube (Ostwald / Ubbelohde) method; for speed of sound: Frequency=2 MHz, Linear variable-path acoustic interferometer; for mass density: Vibrating tube method
[2] = xn = mol fraction of the nth substance listed; conditions: 100 kPa, Liquid; for viscosity: Capillary tube (Ostwald / Ubbelohde) method; for speed of sound: Frequency=2 MHz, Linear variable-path acoustic interferometer; for mass density: Vibrating tube method

Compound	viscosity ([1]; 303.15 K)	speed of sound ([1]; 303.15 K)	mass density ([1]; 303.15 K)	viscosity ([1]; 308.15 K)	speed of sound ([1]; 308.15 K)	mass density ([1]; 308.15 K)	viscosity ([1]; 313.15 K)	speed of sound ([1]; 313.15 K)	mass density ([1]; 313.15 K)	viscosity ([1]; 318.15 K)	speed of sound ([1]; 318.15 K)	mass density ([1]; 318.15 K)	other results
OCCCl [1-chloro-2-hydroxyethane]	2.578 ± 1 mPa·s	1342.8 ± 8.2 m/s	1192.12 ± 4 kg/m3	2.259 ± 1 mPa·s	1328.5 ± 8.1 m/s	1186.63 ± 4 kg/m3	1.852 mPa·s	1315.5 ± 8 m/s	1178.05 ± 4 kg/m3	1.564 mPa·s	1301.2 ± 7.9 m/s	1170.87 ± 4 kg/m3	–
Nc1cccc(Cl)c1 [3-chlorobenzenamine]	4.255 ± 1 mPa·s	1517.5 ± 9.3 m/s	1205.32 ± 4 kg/m3	3.842 ± 1 mPa·s	1501.2 ± 9.2 m/s	1200.75 ± 4 kg/m3	3.43 ± 1 mPa·s	1480.3 ± 9 m/s	1196.02 ± 4 kg/m3	3.022 ± 1 mPa·s	1464.8 ± 8.9 m/s	1191.25 ± 4 kg/m3	–
Nc1cccc(Cl)c1 [3-chlorobenzenamine] + OCCCl	–	–	–	–	–	–	–	–	–	–	–	–	viscosity ([2]; 303.15 K, x1 = 1): 4.255 ± 1 mPa·s; speed of sound ([2]; 303.15 K, x1 = 1): 1517.5 ± 9.3 m/s; mass density ([2]; 303.15 K, x1 = 1): 1205.32 ± 4 kg/m3; viscosity ([2]; 308.15 K, x1 = 1): 3.842 ± 1 mPa·s; speed of sound ([2]; 308.15 K, x1 = 1): 1501.2 ± 9.2 m/s; mass density ([2]; 308.15 K, x1 = 1): 1200.75 ± 4 kg/m3; viscosity ([2]; 313.15 K, x1 = 1): 3.43 ± 1 mPa·s; speed of sound ([2]; 313.15 K, x1 = 1): 1480.3 ± 9 m/s; mass density ([2]; 313.15 K, x1 = 1): 1196.02 ± 4 kg/m3; viscosity ([2]; 318.15 K, x1 = 1): 3.022 ± 1 mPa·s; speed of sound ([2]; 318.15 K, x1 = 1): 1464.8 ± 8.9 m/s; mass density ([2]; 318.15 K, x1 = 1): 1191.25 ± 4 kg/m3
NCCO [2-aminoethan-1-ol] + Nc1cccc(Cl)c1	–	–	–	–	–	–	–	–	–	–	–	–	viscosity ([2]; 303.15 K, x2 = 0): 14.42 ± 1 mPa·s; speed of sound ([2]; 303.15 K, x2 = 0): 1703.1 ± 10 m/s; mass density ([2]; 303.15 K, x2 = 0): 1008.72 ± 4 kg/m3; viscosity ([2]; 308.15 K, x2 = 0): 11.71 ± 1 mPa·s; speed of sound ([2]; 308.15 K, x2 = 0): 1685.8 ± 10 m/s; mass density ([2]; 308.15 K, x2 = 0): 1004.65 ± 4 kg/m3; viscosity ([2]; 313.15 K, x2 = 0): 9.564 ± 1 mPa·s; speed of sound ([2]; 313.15 K, x2 = 0): 1671.2 ± 10 m/s; mass density ([2]; 313.15 K, x2 = 0): 1000.74 ± 4 kg/m3; viscosity ([2]; 318.15 K, x2 = 0): 7.558 ± 1 mPa·s; speed of sound ([2]; 318.15 K, x2 = 0): 1653.2 ± 10 m/s; mass density ([2]; 318.15 K, x2 = 0): 996.04 ± 4 kg/m3
OCCc1ccccc1 [2-phenylethanol] + Nc1cccc(Cl)c1	–	–	–	–	–	–	–	–	–	–	–	–	viscosity ([2]; 303.15 K, x2 = 0): 9.045 ± 1 mPa·s; speed of sound ([2]; 303.15 K, x2 = 0): 1508.4 ± 9.2 m/s; mass density ([2]; 303.15 K, x2 = 0): 1012.34 ± 4 kg/m3; viscosity ([2]; 308.15 K, x2 = 0): 7.193 ± 1 mPa·s; speed of sound ([2]; 308.15 K, x2 = 0): 1490.8 ± 9.1 m/s; mass density ([2]; 308.15 K, x2 = 0): 1008.63 ± 4 kg/m3; viscosity ([2]; 313.15 K, x2 = 0): 6.085 ± 1 mPa·s; speed of sound ([2]; 313.15 K, x2 = 0): 1470.6 ± 9 m/s; mass density ([2]; 313.15 K, x2 = 0): 1004.84 ± 4 kg/m3; viscosity ([2]; 318.15 K, x2 = 0): 4.984 ± 1 mPa·s; speed of sound ([2]; 318.15 K, x2 = 0): 1456.4 ± 8.9 m/s; mass density ([2]; 318.15 K, x2 = 0): 1000.94 ± 4 kg/m3
OCCc1ccccc1 [2-phenylethanol]	9.045 ± 1 mPa·s	1508.4 ± 9.2 m/s	1012.34 ± 4 kg/m3	7.193 ± 1 mPa·s	1490.8 ± 9.1 m/s	1008.63 ± 4 kg/m3	6.085 ± 1 mPa·s	1470.6 ± 9 m/s	1004.84 ± 4 kg/m3	4.984 ± 1 mPa·s	1456.4 ± 8.9 m/s	1000.94 ± 4 kg/m3	–
NCCO [2-aminoethan-1-ol]	14.42 ± 1 mPa·s	1703.1 ± 10 m/s	1008.72 ± 4 kg/m3	11.71 ± 1 mPa·s	1685.8 ± 10 m/s	1004.65 ± 4 kg/m3	9.564 ± 1 mPa·s	1671.2 ± 10 m/s	1000.74 ± 4 kg/m3	7.558 ± 1 mPa·s	1653.2 ± 10 m/s	996.04 ± 4 kg/m3	–
